According to PMC12977544, “Phenotypic high-throughput screening identifies modulators of gut microbial choline metabolism” (mBio, 2026):
Read-outs that look alike come from different tables or passages of the source.

How the values were obtained:
Test in all cases: TMA inhibition in bacterial whole cells (LC–MS/MS of d9-TMA from d9-choline)
E. coli MS 200-1 = assay type: cell-based, Escherichia coli MS 200-1
Procedure: (§1) For TMA inhibition assays, E. coli and P. mirabilis were grown in NCE medium supplemented with 20 mM choline chloride, A. hydrogenalis was grown in MEGA medium supplemented with 3 mM choline chloride, and C. sporogenes was grown in BHI medium supplemented with 20 mM of choline chloride to induce expression of the cut gene cluster. For MIC assays, all bacteria strains were grown in MEGA medium.
(§2) Compounds were stored as 10 mM DMSO stocks at –20°C and diluted in DMSO to prepare varying concentrations of inhibitors for testing. Bacteria were grown anaerobically overnight in media supplemented with choline as described above. Cells were pelleted and resuspended in PBS, and d9-choline chloride was added to a final concentration of 1 mM. The final OD600 of the PBS cell resuspensions is as follows: 0.4 (E. coli), 0.15–0.2 (P. mirabilis), 0.2 (C. sporogenes), and 0.4 (A. hydrogenalis). The resuspended cells were added to 96-well plates containing inhibitors (final concentration of 1% DMSO, with final inhibitor concentrations ranging between 0 and 325 µM). The plates were sealed and incubated for 75 min (or 90 min for P. mirabilis) at 37°C. Following incubation, the plates were removed from the anaerobic chamber and analyzed immediately or kept at –20°C until LC–MS/MS analysis. Each inhibitor concentration was tested in triplicate. EC50 values were calculated with GraphPad Prism by fitting the log(inhibitor) vs response—Variable slope (four-parameter) model for non-linear regression.
(§3) Samples were kept frozen until analysis and kept cold on ice during handling due to the volatility of TMA. Bacterial cell resuspensions in PBS were diluted 100-fold in LCMS-grade acetonitrile with 0.1% formic acid to lyse cells, precipitate proteins, and extract metabolites. Samples were centrifuged at 4,000 rpm for 10 min at 4°C to pellet proteins. The supernatants were then further diluted 20-fold in LCMS-grade acetonitrile with 0.1% formic acid, and the resulting solution was analyzed by LC–MS/MS.
(§4) LC–MS/MS analysis was performed on an Agilent 1290/6470 Triple Quadrupole LC–MS instrument (Agilent Technologies) using electrospray ionization. The mass spectrometer was operated in multiple reaction monitoring (MRM) mode with positive ionization monitoring. The precursor–product ion pairs used in MRM mode were as follows: m/z 69.1m/z → 49.1 (d9-TMA) and m/z 113.2 m/z → 69.1 (d9-choline). The capillary voltage was set to 4.0 kV, and the fragmentor voltage was set to 30 V (d9-TMA) and 115 V (d9-choline). The collision energy for the precursor–product ion pairs was set to 29 V (d9-TMA) and 21 V (d9-choline). MS^1 resolution was set to wide and MS^2 resolution to unit. The drying gas temperature was maintained at 250°C, with a flow rate of 11 L/min and a nebulizer pressure of 45 psi. The time filter width used was 0.07 min. The injection volume of all samples was 1 μL. Samples were injected onto InfinityLab Poroshell 120 (Agilent) HILIC columns (2.7 μm, 100 mm × 2.1 mm, 100 Å) preceded by InfinityLab Poroshell 120 HILIC guard columns (2.1 mm, 1.9µm UHPLC guard). The LC conditions on the binary pump were as follows: a gradient of 5–35% A increasing over 1.95 min (1.2 mL/min), a gradient of 35–5% A decreasing over 0.05 min (1.6 mL/min), and held at 5% A for 0.5 min (2 mL/min). […] Solvent A was 10 mM ammonium formate with 0.1% formic acid, and solvent B was acetonitrile with 0.1% formic acid. Data analysis was performed with Mass Hunter Workstation Data Acquisition and Qualitative Analysis software (Agilent Technologies).

[1] = tested on: Anaerococcus hydrogenalis DSM 7454; assay type: cell-based; details: 1 mM d9-choline in PBS, 75 min, 37°C, anaerobic
Procedure: as §1, §2, §3, §4

[2] = tested on: Clostridium sporogenes ATCC 15579; assay type: cell-based; details: 1 mM d9-choline in PBS, 75 min, 37°C, anaerobic
Procedure: as §1, §2, §3, §4

[3] = tested on: Proteus mirabilis ATCC 29906; assay type: cell-based; details: 1 mM d9-choline in PBS, 90 min, 37°C, anaerobic; for EC50: read-out: EC50 in whole cells, P. mirabilis (TMA inhibition)
Procedure: as §1, §2, §3, §4

[4] = Escherichia coli, MS2001, 1.25 h, 1 mM d9-choline in PBS, 75 min, 37°C, anaerobic
[5] = Anaerococcus hydrogenalis, DSM7454, 1.25 h
[6] = Clostridium sporogenes, ATCC15579, 1.25 h
[7] = Proteus mirabilis, ATCC29906, 1.5 h
[8] = 1 mM d9-choline in PBS, 75 min, 37°C, anaerobic

Structure (SMILES) | EC50 (E. coli MS 200-1; [4]) | EC50 [2, 6] | EC50 [3, 7] | EC50 (E. coli MS 200-1; [8]) | EC50 [3] | EC50 [2] | other results
Cc1ccc(-c2cc(C(=O)NCCCN3CCCCC3)c(C)[nH]2)cc1C [C00015] | 10 µM | 267 µM | 193 µM | – | – | – | EC50 [1, 5]: 244 µM
Cc1ccc(-c2cc(C(=O)NCCCCN3CCCCCC3)c(C)[nH]2)cc1C [C00018] | 8 µM | 68 µM | 33 µM | – | – | – | EC50 [1, 5]: 7 µM
Cc1ccc(-c2cc(C(=O)NCCCN3CCC(C)CC3)c(C)o2)cc1C [Compound 12] | – | – | – | 15 µM | > 312 µM | – | EC50 [1]: 54 µM
Cc1ccc(-c2cc(C(=O)NCCCN3CCOCC3)c(C)[nH]2)cc1C [C00011] | > 125 µM | – | – | – | – | – | EC50 in whole cells, C. sporogenes (TMA inhibition) [2]: No inhibition at 312; EC50 in whole cells, P. mirabilis (TMA inhibition) [3]: No inhibition at 312
Cc1ccc(-c2cc(C(=O)NCCCN3CCC(C)CC3)c(C)[nH]2)cc1C [C00002] | 9 µM | – | – | – | – | – | –
C#CCn1c(-c2ccc(C)c(C)c2)cc(C(=O)NCCCN2CCC(C)CC2)c1C [Compound 16] | – | – | – | 39 µM | – | 5 µM | –
Cc1ccc(-c2cc(C(=O)NCCCN3CCN(C)C(=O)C3)c(C)[nH]2)cc1C [C00013] | > 125 µM | > 312 µM | – | – | – | – | EC50 in whole cells, P. mirabilis (TMA inhibition) [3]: No inhibition at 312
Cc1ccc(-c2cc(C(=O)NCCCN3CCCC3)c(C)[nH]2)cc1C [C00014] | 11 µM | 78 µM | 104 µM | – | – | – | EC50 [1, 5]: 83 µM
Cc1cc(C)cc(-c2cc(C(=O)NCCCN3CCC(C)CC3)c(C)[nH]2)c1 [Compound 25] | – | – | – | 6 µM | 28 µM | 133 µM | EC50 [1]: 19 µM
Cc1ccc(-c2cc(C(=O)NCCCN3CCC(C)CC3)c(C)[nH]2)cc1 [Compound 24] | – | – | – | 92 µM | 131 µM | – | –
Cc1ccc(-c2ncc(C(=O)NCCCN3CCC(C)CC3)s2)cc1C [Compound 14] | – | – | – | 27 µM | 197 µM | 215 µM | –
Cc1ccc(-c2cc(C(=O)NCCCN3CCC(C)CC3)cs2)cc1C [Compound 13] | – | – | – | 14 µM | 50 µM | 85 µM | –
Cc1ccc(-c2cc(C(=O)NCCCCCN3CCCCCC3)c(C)[nH]2)cc1C [C00019] | 2 µM | – | – | – | – | – | –
Cc1ccc(-c2cc(C(=O)NCCCN3CCCCCC3)c(C)[nH]2)cc1C [C00016] | 2 µM | 104 µM | 40 µM | – | – | – | EC50 [1, 5]: 43 µM
Cc1ccc(-c2cc(C(=O)NCCCN3CCCCCCC3)c(C)[nH]2)cc1C [C00017] | 3 µM | 40 µM | 28 µM | – | – | – | EC50 [1, 5]: 28 µM
Cc1ccc(-c2[nH]cc(C(=O)NCCCN3CCC(C)CC3)c2C)cc1C [Compound 8] | – | – | – | > 125 µM | 131 µM | 97 µM | Fold increase of EC50 in E. coli (E. coli MS 200-1; compared with compound 6): more than 10 fold
Cc1ccc(-c2cc(C(=O)NCCN3CCC(C)CC3)c(C)[nH]2)cc1C [C00003] | 7 µM | 213 µM | 64 µM | – | – | – | EC50 [1, 5]: 176 µM

Structure (SMILES) | EC50 (E. coli MS 200-1; [4]) | EC50 [2, 6] | EC50 [3, 7] | EC50 (E. coli MS 200-1; [8]) | EC50 [3] | EC50 [2] | other results
Cc1ccc(-c2c[nH]c(C(=O)NCCCN3CCC(C)CC3)c2)cc1C [Compound 11] | – | – | – | 13 µM | 42 µM | > 312 µM | –
Cc1ccc(-c2cc(C(=O)NCCCN3CCN(C)CC3)c(C)[nH]2)cc1C [C00012] | 14 µM | 92 µM | 58 µM | – | – | – | EC50 in whole cells, A. hydrogenalis (TMA inhibition) [1]: No inhibition at 312
Cc1ccc(-c2cc(C(=O)NCCCCCN3CCC(C)CC3)c(C)[nH]2)cc1C [C00005] | 11 µM | 84 µM | 66 µM | – | – | – | EC50 [1, 5]: 33 µM
Cc1ccc(-c2cc(C(=O)NCCCN3CCC(C)CC3)cn2C)cc1C [Compound 15] | – | – | – | 21 µM | 98 µM | – | –
COCCNC(=O)c1cc(-c2ccc(C)c(C)c2)[nH]c1C [C00007] | – | – | – | – | – | – | EC50 in whole cells, E. coli (TMA inhibition) (E. coli MS 200-1; [8]): No inhibition at 100; EC50 in whole cells, C. sporogenes (TMA inhibition) [2]: No inhibition at 100
Cc1ccc(-c2cc(C(=O)NCCC3=CCCCC3)c(C)[nH]2)cc1C [C00006] | > 100 µM | – | – | – | – | – | EC50 in whole cells, C. sporogenes (TMA inhibition) [2]: No inhibition at 100
Cc1[nH]c(-c2ccccc2)cc1C(=O)NCCCN1CCC(C)CC1 [Compound 22] | – | – | – | 7 µM | 157 µM | 147 µM | EC50 [1]: 24 µM
CCc1[nH]c(-c2ccc(C)c(C)c2)cc1C(=O)NCCCN1CCC(C)CC1 [Compound 9] | – | – | – | 35 µM | – | 103 µM | –
CCCN(CCC)CCNC(=O)c1cc(-c2ccc(C)c(C)c2)[nH]c1C [C00010] | 200 µM | > 312 µM | > 312 µM | – | – | – | –
Cc1ccc(-c2cc(C(=O)NCCN)c(C)[nH]2)cc1C [C00008] | 140 µM | – | – | – | – | – | EC50 in whole cells, C. sporogenes (TMA inhibition) [2]: No inhibition at 312; EC50 in whole cells, P. mirabilis (TMA inhibition) [3]: No inhibition at 312
Cc1ccc(-c2cc(C(=O)NCCCCN3CCC(C)CC3)c(C)[nH]2)cc1C [C00004] | 5 µM | 138 µM | 35 µM | – | – | – | EC50 [1, 5]: 27 µM
Cc1[nH]c(C2CCCCC2)cc1C(=O)NCCCN1CCC(C)CC1 [Compound 21] | – | – | – | 51 µM | – | 8 µM | EC50 [1]: 32 µM
Cc1ccc(-c2cc(C(=O)NCCCN3CCC(C)CC3)c(C)n2-c2ccccc2)cc1C [Compound 18] | – | – | – | 489 µM | – | 3 µM | –
CCCNCCNC(=O)c1cc(-c2ccc(C)c(C)c2)[nH]c1C [C00009] | 60 µM | > 312 µM | > 312 µM | – | – | – | –
Cc1ccc(-c2ccc(C(=O)NCCCN3CCC(C)CC3)[nH]2)cc1C [Compound 10] | – | – | – | 98 µM | 63 µM | 312 µM | –
Cc1ccc(-c2cc(C(=O)NCCCN3CCC(C)CC3)c(C)n2C2CCCC2)cc1C [Compound 17] | – | – | – | 69 µM | – | 8 µM | –
